Activity calls are given as the source filed them. No cut-off for these calls is given here.
Columns and labels:
PC-3 = experiment: Antiproliferative activity against human PC-3 cells assessed as cell growth inhibition measured after 48 hrs by MTT assay; assay type: functional, cell-based; settings: PC-3, 48 h
MDA-MB-231 [1] = experiment: Induction of DNA damage in human MDA-MB-231 cells assessed as increase in gamma-H2AX accumulation measured after 48 hrs by immunofluorescence analysis; assay type: functional, cell-based
Nibrin (Homo sapiens) = biological target: T1, Nibrin (Homo sapiens) (UniProt O60934); experiment: Activation of NBS1 phosphorylation in human MDA-MB-468 cells at 5 to 20 uM measured after 6 to 48 hrs by Western blot analysis; assay type: cell-based; settings: filed as activator, dose 5-20 µM, time 6-48 hrs
T1 sequence (whole entry): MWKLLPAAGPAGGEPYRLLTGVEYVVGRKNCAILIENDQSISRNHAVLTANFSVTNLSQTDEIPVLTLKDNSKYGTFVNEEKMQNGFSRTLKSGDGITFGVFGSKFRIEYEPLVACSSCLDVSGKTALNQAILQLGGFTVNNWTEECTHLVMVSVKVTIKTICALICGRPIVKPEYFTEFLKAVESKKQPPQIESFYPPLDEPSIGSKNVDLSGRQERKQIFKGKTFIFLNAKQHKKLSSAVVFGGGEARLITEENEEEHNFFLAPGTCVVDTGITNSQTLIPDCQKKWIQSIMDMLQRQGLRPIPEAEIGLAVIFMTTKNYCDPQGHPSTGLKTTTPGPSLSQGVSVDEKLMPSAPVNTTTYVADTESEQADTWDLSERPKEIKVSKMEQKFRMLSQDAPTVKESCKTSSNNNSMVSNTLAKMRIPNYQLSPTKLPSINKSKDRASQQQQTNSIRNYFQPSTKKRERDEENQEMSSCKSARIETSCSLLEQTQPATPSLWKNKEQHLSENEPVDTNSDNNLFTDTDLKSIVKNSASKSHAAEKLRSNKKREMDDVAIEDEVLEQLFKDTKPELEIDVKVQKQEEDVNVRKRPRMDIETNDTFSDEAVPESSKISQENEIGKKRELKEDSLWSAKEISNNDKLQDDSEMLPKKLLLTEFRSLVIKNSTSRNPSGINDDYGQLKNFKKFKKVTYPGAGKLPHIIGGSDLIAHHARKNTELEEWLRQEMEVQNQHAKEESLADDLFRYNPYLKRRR

MDA-MB-468 [2] = experiment: Induction of DNA damage in human MDA-MB-468 cells assessed as reduction in BRCA2 expression measured after 6 to 48 hrs by Western blot analysis; assay type: functional, cell-based; settings: dose 5-20 µM, time 6-48 hrs, DDE = dose-dependent effect
MDA-MB-468 [3] = experiment: Inhibition of autophagic flux in human MDA-MB-468 cells assessed as increase in nuclear p62 expression measured after 48 hrs by immunofluorescence analysis; assay type: functional, cell-based; settings: dose 5-20 µM, DDE = dose-dependent effect
MDA-MB-231 [4] = experiment: Inhibition of autophagic flux in human MDA-MB-231 cells assessed as increase in cytoplasmic p62 expression measured after 48 hrs by Western blot analysis; assay type: functional, cell-based; settings: dose 5-20 µM, DDE = dose-dependent effect
MDA-MB-231 [5] = experiment: Inhibition of autophagic flux in human MDA-MB-231 cells assessed as reduction in polyubiquitinated H2A expression measured after 48 hrs by Western blot analysis; assay type: functional, cell-based
MDA-MB-468 [6] = experiment: Cell cycle arrest in human MDA-MB-468 cells assessed as increase in accumulation at S-phase at 5 to 20 uM measured after 48 hrs by propidium iodide staining based flow cytometry; assay type: functional; settings: dose 5-20 µM
MDA-MB-231 [7] = experiment: Cell cycle arrest in human MDA-MB-231 cells assessed as reduction in cyclin A expression measured after 48 hrs by Western blot analysis; assay type: functional, cell-based; settings: dose 5-20 µM, DDE = dose-dependent effect
MDA-MB-231 [8] = experiment: Cell cycle arrest in human MDA-MB-231 cells assessed as reduction in CDK1 expression measured after 48 hrs by Western blot analysis; assay type: functional, cell-based; settings: dose 5-20 µM, DDE = dose-dependent effect
MDA-MB-231 [9] = experiment: Cell cycle arrest in human MDA-MB-231 cells assessed as increase in p21 expression measured after 48 hrs by Western blot analysis; assay type: functional, cell-based; settings: dose 5-20 µM, DDE = dose-dependent effect
MDA-MB-231 [10] = experiment: Cell cycle arrest in human MDA-MB-231 cells assessed as increase in CHK1 phosphorylation at Ser 345 residue measured after 48 hrs by Western blot analysis; assay type: functional, cell-based; settings: dose 5-20 µM, DDE = dose-dependent effect
MDA-MB-468 [11] = experiment: Cell cycle arrest in human MDA-MB-468 cells assessed as reduction in cyclin A expression measured after 48 hrs by Western blot analysis; assay type: functional, cell-based; settings: dose 5-20 µM, DDE = dose-dependent effect
MDA-MB-468 [12] = experiment: Cell cycle arrest in human MDA-MB-468 cells assessed as reduction in CDK2 expression measured after 48 hrs by Western blot analysis; assay type: functional, cell-based; settings: dose 5-20 µM, DDE = dose-dependent effect
MDA-MB-468 [13] = experiment: Cell cycle arrest in human MDA-MB-468 cells assessed as increase in p21 expression measured after 48 hrs by Western blot analysis; assay type: functional, cell-based; settings: dose 5-20 µM, DDE = dose-dependent effect
MDA-MB-468 [14] = experiment: Cell cycle arrest in human MDA-MB-468 cells assessed as increase in CHK1 phosphorylation at Ser 345 residue measured after 48 hrs by Western blot analysis; assay type: functional, cell-based; settings: dose 5-20 µM, DDE = dose-dependent effect
MDA-MB-468 [15] = experiment: Induction of mitochondrial membrane potential loss in human MDA-MB-468 cells at 20 uM measured after 48 hrs by JC-1 staining based assay relative to control; assay type: functional
MDA-MB-231 [16] = experiment: Induction of apoptosis in human MDA-MB-231 cells assessed as reduction in Bcl-2 expression measured after 48 hrs by Western blot analysis; assay type: functional, cell-based; settings: dose 5-20 µM, DDE = dose-dependent effect
MDA-MB-231 [17] = experiment: Induction of apoptosis in human MDA-MB-231 cells assessed as increase in Bak expression measured after 48 hrs by Western blot analysis; assay type: functional, cell-based; settings: dose 5-20 µM, DDE = dose-dependent effect
MDA-MB-231 [18] = experiment: Induction of apoptosis in human MDA-MB-231 cells assessed as increase in Bax expression measured after 48 hrs by Western blot analysis; assay type: functional, cell-based; settings: dose 5-20 µM, DDE = dose-dependent effect
MDA-MB-231 [19] = experiment: Induction of apoptosis in human MDA-MB-231 cells assessed as increase in cytochrome c expression measured after 48 hrs by Western blot analysis; assay type: functional, cell-based; settings: dose 5-20 µM, DDE = dose-dependent effect
MDA-MB-468 [20] = experiment: Induction of apoptosis in human MDA-MB-468 cells assessed as increase in Bax expression measured after 48 hrs by Western blot analysis; assay type: functional, cell-based; settings: dose 5-20 µM, DDE = dose-dependent effect
MDA-MB-468 [21] = experiment: Induction of apoptosis in human MDA-MB-468 cells assessed as increase in cleaved caspase-9 expression measured after 48 hrs by Western blot analysis; assay type: functional, cell-based; settings: dose 5-20 µM, DDE = dose-dependent effect
MDA-MB-468 [22] = experiment: Induction of apoptosis in human MDA-MB-468 cells assessed as increase in cleaved PARP expression measured after 48 hrs by Western blot analysis; assay type: functional, cell-based; settings: dose 5-20 µM, DDE = dose-dependent effect
MDA-MB-231 [23] = experiment: Antitumor activity against human MDA-MB-231 cells xenografted in ip dosed NOD/SCID mouse assessed as reduction in tumor growth administered at 3 days interval for 24 days and measured during compound dosing by caliper method; assay type: functional, organism-based; settings: dose 5-15 mg/kg, time 24.0 day, DDE = dose-dependent effect
MDA-MB-231 [24] = experiment: Antitumor activity against human MDA-MB-231 cells xenografted in NOD/SCID mouse assessed as reduction in cell count at 5 to 15 mg/kg, ip administered at 3 days interval for 24 days and measured on day 25 by H and E staining based assay; assay type: functional, organism-based; settings: dose 5-15 mg/kg, time 25.0 day
MDA-MB-231 [25] = experiment: Antitumor activity against human MDA-MB-231 cells xenografted in ip dosed NOD/SCID mouse assessed as upregulation of p62 expression administered at 3 days interval for 24 days and measured on day 25 by Western blot analysis; assay type: functional, organism-based; settings: dose 5-15 mg/kg, time 25.0 day, DDE = dose-dependent effect
MDA-MB-231 [26] = experiment: Antitumor activity against human MDA-MB-231 cells xenografted in ip dosed NOD/SCID mouse assessed as upregulation of PARP expression administered at 3 days interval for 24 days and measured on day 25 by Western blot analysis; assay type: functional, organism-based; settings: dose 5-15 mg/kg, time 25.0 day, DDE = dose-dependent effect

O=C(NC1CCCCC1)c1[nH]cnc1-c1nc2ccccc2[nH]1
IC50 (PC-3): 17.5 µM | Activity (MDA-MB-231 [1]): Active | Activity (Nibrin (Homo sapiens)): Active | Activity (MDA-MB-468 [2]): Dde | inhibition (MDA-MB-468 [3]): Dde | inhibition (MDA-MB-231 [4]): Dde | inhibition (MDA-MB-231 [5]): Active | Activity (MDA-MB-468 [6]): Active | Activity (MDA-MB-231 [7]): Dde | Activity (MDA-MB-231 [8]): Dde | Activity (MDA-MB-231 [9]): Dde | Activity (MDA-MB-231 [10]): Dde | Activity (MDA-MB-468 [11]): Dde | Activity (MDA-MB-468 [12]): Dde | Activity (MDA-MB-468 [13]): Dde | Activity (MDA-MB-468 [14]): Dde | Activity (MDA-MB-468 [15]): 50% | Activity (MDA-MB-231 [16]): Dde | Activity (MDA-MB-231 [17]): Dde | Activity (MDA-MB-231 [18]): Dde | Activity (MDA-MB-231 [19]): Dde | Activity (MDA-MB-468 [20]): Dde | Activity (MDA-MB-468 [21]): Dde | Activity (MDA-MB-468 [22]): Dde | TGI (MDA-MB-231 [23]): Dde | Activity (MDA-MB-231 [24]): Active | Activity (MDA-MB-231 [25]): Dde | Activity (MDA-MB-231 [26]): Dde
